“Also recorded” adds a separate entry of the source.
Assays:
[1] = target: T1, HTR2B Human 5-Hydroxytryptamine GPCR (Homo sapiens, UniProt P41595); assay: HTR2B GPCR calcium assay, 86-0030P-2091AG; format: cell-based
T1 construct: 86-0030P-2091AN
Text: 1.4.2 Further functional off-target assays (Eurofins)
Table S8. Compound 24 was further tested in the following functional assays at Eurofins.
ASSAY NAME ESTIMATED IC50 [µM] […]
FLIPR Assay expressed in HEK293 cells
GABAA α5/β3/γ2 ionotropic receptor (human GABRA5, GABRB3, >30
and GABRG2 genes, expressed in HEK293 cells

[2] = test system: Salmonella typhimurium TA98 and TA100; assay: Mini-AMES; format: cell-based; conditions: @62.25 µg mL^−1 (147 × 10^−6 M); also in presence of rat liver S9 fractions
Procedure: P2X4 receptor (human P2RX4 gene) expressed in HEK293 cells >30
TRPA1 channel (human TRPA1 gene) expressed in CHO cells >30
TRPC6 channel (human TRPC6 gene) expressed in HEK293 cells >30
TRPV1 channel (human TRPV1 gene) expressed in HEK293 cells >30
TRPV4 channel (human TRPV4 gene) expressed in CHO cells >30
(§1) 1.4.4 Pharmacokinetic and off-target functional assays (Cyprotex)
(§2) Compound 24 was assayed at Cyprotex in functional assays for interference with important off-targets as well as important pharmacokinetic parameters. With the exception of plasma protein binding, a dose-response relationship was studied in order to calculate IC50 values.
(§3) Table S10. Information on in vitro ADMET assays performed at Cyprotex. […]
Approximately ten million bacteria were exposed in triplicate to 24 (1.9, 3.9, 7.8, 15.6, 31.2, 62.5 µg/mL), a negative control (vehicle) and positive controls for 90 min in medium containing a low concentration of histidine (sufficient for about 2 doublings.) The cultures were then diluted into indicator medium lacking histidine, and dispensed into 48 wells of 384-well plates (micro-plate format, MPF). […] The wells showing growth were counted and compared to the vehicle control. […]
The maximum tolerated dose of 24 in NMRI mice was conducted and analyzed at CRO ATRC Aurigon Toxicological Research Center Ltd, Hungary. […]

[3] = target: T2, CYP2D6 (Homo sapiens, UniProt P10635); assay: Cytochrome P450 inhibition assay, CYP2D6; format: in vitro ADME; conditions: Metabolic activity
T2 construct: Cyprotex
T2 sequence (P10635 whole entry): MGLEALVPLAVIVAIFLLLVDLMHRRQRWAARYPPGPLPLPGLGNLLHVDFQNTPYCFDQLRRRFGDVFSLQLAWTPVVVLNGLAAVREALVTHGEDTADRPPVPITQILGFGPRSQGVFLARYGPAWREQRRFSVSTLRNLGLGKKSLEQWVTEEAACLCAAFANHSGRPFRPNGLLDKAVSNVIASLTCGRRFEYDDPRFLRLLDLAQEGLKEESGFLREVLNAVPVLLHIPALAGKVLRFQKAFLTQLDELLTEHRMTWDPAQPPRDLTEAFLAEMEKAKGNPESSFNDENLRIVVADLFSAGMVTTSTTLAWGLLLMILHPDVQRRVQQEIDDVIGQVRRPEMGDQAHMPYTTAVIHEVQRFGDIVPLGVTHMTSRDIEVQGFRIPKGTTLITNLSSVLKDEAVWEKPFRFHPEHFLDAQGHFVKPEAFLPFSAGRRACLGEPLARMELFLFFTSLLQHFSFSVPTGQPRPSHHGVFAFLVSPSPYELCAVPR
Procedure: as §1, §2, §3
(§4) An increase in the number of colonies of at least two-fold over baseline (mean + SD of the vehicle control) and a dose response indicate a positive response. An […]
(§5) different from the vehicle control.
(§6) Where indicated, S9 fraction from the livers of Aroclor 1254-treated rats were included in the incubation at a final concentration of 4.5%. A NADPH-regenerating system was also included to ensure a steady supply of reducing equivalents.

[4] = test system: PA14 biofilm; assay: eDNA release assay; format: cell-based; conditions: Pseudomonas aeruginosa; PA14, propidium iodine staining
Procedure: The eDNA release assay was performed as described previously[3] with slight modifications. The impact on eDNA was assessed by incubation of biofilm with propidium iodine solution (0.025 mg mL−1) for 3 h and detection of specific florescence at 620 nm after a thorough washing step with […]
1.2.7 P. aeruginosa clinical isolates from bronchiectasis patients – phenotypic characterization and inhibition of pyocyanin production
Clinical isolates. The P. aeruginosa strains had been isolated from respiratory secretions collected from patients with bronchiectasis seen at the bronchiectasis out-patient clinic of Hannover Medical School. The clinical isolates were genotyped by a custom-made multilocus microarray.[4] The hexadecimal SNP genotype was converted into the multilocus sequence genotype (MLST)[5] by comparison with the sequence of the seven selected housekeeping genes in genome sequences of the same clone deposited in our in-house[6] or the International Pseudomonas Genome Database.[7]

[5] = target: T3, V1a (h) (Homo sapiens, UniProt P37288); assay: Cerep panel binding assay; conditions: agonist radioligand
T3 construct: purchased Eurofins Pharma Discovery (Cerep) SafetyScreen44 Panel, ITEM P270
T3 sequence (P37288 whole entry): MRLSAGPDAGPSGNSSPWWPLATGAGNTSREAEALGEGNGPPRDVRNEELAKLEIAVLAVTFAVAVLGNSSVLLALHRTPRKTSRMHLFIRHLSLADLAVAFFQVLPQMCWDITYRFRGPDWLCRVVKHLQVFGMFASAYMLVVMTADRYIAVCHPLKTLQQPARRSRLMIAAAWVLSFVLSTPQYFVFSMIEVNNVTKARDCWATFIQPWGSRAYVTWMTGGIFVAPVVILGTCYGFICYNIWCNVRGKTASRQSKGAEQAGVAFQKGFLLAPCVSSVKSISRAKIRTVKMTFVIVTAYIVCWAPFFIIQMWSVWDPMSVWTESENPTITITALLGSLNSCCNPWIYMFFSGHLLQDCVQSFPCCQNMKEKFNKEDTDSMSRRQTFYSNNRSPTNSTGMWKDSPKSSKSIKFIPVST
Procedure: 1.4 Safety Pharmacology of Compound 24
1.4.1 Cerep panel (Eurofins)
Compound 24 was further profiled for its off-target interactions against a panel of 44 targets. The
screening was done by Eurofins Pharma Discovery within the SafetyScreen44 Panel (Cerep, ITEM
P270). In all assays binding/functional inhibition was determined at 10 µM.
Table S6. […]
V1a (h) (agonist radioligand) 7.6

[6] = target: T4, CYP3A4 (Homo sapiens, UniProt P08684); assay: Cytochrome P450 inhibition assay, CYP3A4; format: in vitro ADME
T4 construct: Cyprotex
T4 sequence (P08684 whole entry): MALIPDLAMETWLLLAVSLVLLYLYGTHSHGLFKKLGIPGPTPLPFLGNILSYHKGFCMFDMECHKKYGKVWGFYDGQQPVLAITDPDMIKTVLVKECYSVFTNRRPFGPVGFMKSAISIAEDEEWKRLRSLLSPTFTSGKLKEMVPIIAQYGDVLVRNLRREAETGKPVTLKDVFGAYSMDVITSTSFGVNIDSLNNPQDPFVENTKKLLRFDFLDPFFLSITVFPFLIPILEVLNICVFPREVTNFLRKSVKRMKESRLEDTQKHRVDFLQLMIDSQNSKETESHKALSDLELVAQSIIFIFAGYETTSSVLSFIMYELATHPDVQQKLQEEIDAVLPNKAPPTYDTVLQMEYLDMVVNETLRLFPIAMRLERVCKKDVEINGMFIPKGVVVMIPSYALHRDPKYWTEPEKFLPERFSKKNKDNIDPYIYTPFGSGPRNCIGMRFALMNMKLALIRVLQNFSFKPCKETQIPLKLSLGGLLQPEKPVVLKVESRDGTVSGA
Procedure: as §1, §2, §3, §4, §5, §6

T1 sequence (P41595 whole entry): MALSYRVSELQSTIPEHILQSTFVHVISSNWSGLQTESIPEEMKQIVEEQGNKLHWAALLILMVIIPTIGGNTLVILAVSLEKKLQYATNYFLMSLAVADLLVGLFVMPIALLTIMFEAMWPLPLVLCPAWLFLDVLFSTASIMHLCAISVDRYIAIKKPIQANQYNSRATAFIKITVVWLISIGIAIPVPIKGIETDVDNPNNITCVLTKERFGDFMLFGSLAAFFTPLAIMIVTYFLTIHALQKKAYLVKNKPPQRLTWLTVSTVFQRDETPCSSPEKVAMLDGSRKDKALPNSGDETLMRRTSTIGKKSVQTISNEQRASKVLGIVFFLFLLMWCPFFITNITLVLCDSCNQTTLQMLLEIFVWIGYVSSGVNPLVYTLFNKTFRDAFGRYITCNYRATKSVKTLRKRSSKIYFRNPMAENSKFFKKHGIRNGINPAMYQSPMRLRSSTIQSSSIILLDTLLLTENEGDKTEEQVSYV

For `CC(C)Oc1ccc(-c2ncc(CNc3ccnc(C(F)(F)F)c3)cn2)cc1Cl` [Compound 24], the IC50 [1] was over 10 µM, the “Mini‐AMES genotoxicity” value [2] was “no genotoxicity; also recorded: Negative @62.25 µg mL^−1 (147 × 10^−6 M)” and the IC50 [3] was over 25 µM. It also gave an IC50 [4] of 0.346 µM, an inhibition at 10 µM [5] of 7.6% and an IC50 ([6]; Metabolic activity, activation observed) of over 25 µM. For the same compound, the CYP3A4 activation ([6]; at 10 × 10^−6 M) was over 50%.

From PMC9929129, “Towards Translation of PqsR Inverse Agonists: From In Vitro Efficacy Optimization to In Vivo Proof‐of‐Principle” (Advanced Science, 2023)
